The source of these data is patent US20070232594A1, “Aromatic amide derivatives, medicinal compositions containing the same, medical uses of both” (priority 2004, published 2007).

By pKi is commonly meant the negative decadic logarithm of the Ki, by convention in mol/L.

For data set [1], the target named is T1, cytochrome P-450 (CYP3A4) (Homo sapiens, UniProt P08684).
T1 construct: human liver microsome (1.0 mg/mL) as enzyme; from tissue; host or cells: human liver microsomes
Put plainly: Inhibitory effect on cytochrome P-450 (CYP3A4) from human liver microsome. In kind it is in vitro ADME. Conditions: test compound 10 μM, testosterone 50 μM substrate, 5 minutes at 37° C., rate of substrate metabolism versus control. The procedure:
The Experiment for Inhibitory Effect on Cytochrome P-450 (CYP3A4) Originated from Human Liver Microsome
The test compounds dissolved in dimethylsulfoxide at 10 mM were added to 0.1 M phosphate buffer (pH7.4) containing 10 mM MgCl2, and human liver microsome (1.0 mg/mL) as enzyme and testosterone (50 μM) as a substrate for CYP3A4 were added to this 0.1M phosphate buffer in order to prepare phosphate buffer solution of the test compounds at final concentration of 10 μM (final volume 0.2 mL). The reaction was started by the addition of NADPH (1.0 mg/mL) and then incubated for 5 minutes at 37° C. After acetonitrile was added to stop the reaction, the residual concentration of testosterone was determined using LC/MS/MS, and calculated the rate of metabolism of substrate from the ratio of content of testosterone at end to that at start (A value). As the same way, the experiment except for the test compounds was carried out and remaining testosterone was determined in the same way as mentioned above. The rate of metabolism of substrate was calculated from the ratio of content of testosterone at end to that at start of the reaction (B value) as control value. The ratio of A value against B value was determined as a degree of incidence of test compounds on metabolic rate, which was shown in Table 70.
(In general: Liver microsomes are a subcellular fraction often used to study metabolism.)

Data set [2] has as its target human V2 receptor (Homo sapiens, UniProt P30518). As to the kind of experiment: Binding experiment for human V2 receptor ([3H]-AVP displacement, CHO cell membranes). Also on record: purchased Packard BioScience; host or cells: CHO cells (membranes). Conditions: [3H]-AVP binding, CHO cell membranes expressing human V2 receptor; Ki calculated from IC50 and Kd. The procedure: Binding Experiment for Human V2 Receptor
Test compounds were dissolved in dimethylsulfoxide at 10 mM. The affinities for human V2 receptor were determined by an inhibition against [^3H]-Arginie vasopressin (AVP) (Perkin elmer Japan) binding to the human V2 receptor using CHO cell membranes expressed human V2 receptor (Packard BioScience). Cell membranes suspension was prepared by suspending the cell membranes as mentioned above with Assay buffer (50 mM Tris-HCl, 10 mM MgCl2, 0.1% bovine serum albumin (BSA), pH7.4) at an adequate protein concentration. The test compound solutions were prepared by diluting the dimethylsulfoxide solution of the test compound as mentioned above with Assay buffer at final concentration of 10 nM, 100 nM, 1 μM and 10 μM (in this diluting procedure, concentration of dimethylsulfoxide was adjusted to be 0.5% at each concentration of the test compound). Cell membranes suspension (50 μL), 3 nM of [^3H]-AVP (50 μL), Assay buffer (50 μL) and the solution of the test compounds at each concentrations (50 μL) were added to MultiScreen 96-well plate (Millipore) and the mixture was incubated for an hour at 25° C. with shaking slightly. After filtration by aspiration, the plate was washed with ice-cold washing buffer (50 mM Tris-HCl, 10 mM MgCl2, pH 7.4) for three times. After dry the plate, Microscinti-20 (Packard) was added to each well and the plate was shaken slightly, and then radioactivities of each well were counted with a micro plate scintillation counter, TopCount (Packard). Non-specific binding of [^3H]-AVP for cell membranes was determined by adding 1 μM of cold AVP substituted for the test compounds. The concentration of the test compounds inhibiting the specific binding of [^3H]-AVP by 50% was considered as IC50 value.
The Calculation of Kd Value of [^3H]-AVP for the Cell Membranes Expressed Human V2 Receptor
The suspension of the cell membranes expressed human V2 receptor was prepared with diluting adequately with the Assay buffer as mentioned above. In consideration for the radioactivity of [^3H]-AVP, six different concentrations (final concentration; ranging from approximately 100 pM to 6000 pM) of [^3H]-AVP were prepared by serial dilution by from 2 to 3 fold with the Assay buffer. The cell membranes suspension (50 μL), each concentrations of [^3H]-AVP (50 μL), the Assay buffer (50 μL) and 1 μM of cold AVP or the Assay buffer were added to MultiScreen 96-well plate (Millipore) and the mixture was incubated for an hour at 25° C. with shaking slightly. The specific bindings (Bvalue) of each concentrations of the [^3H]-AVP were determined by the method as mentioned above and free-bound contents (F value) at each concentrations of the [^3H]-AVP were determined. The Kd value was calculated by Scatchard analysis using the B value and the F value.

Data set [3] concerns Male SD rats. Put plainly: Acute toxicity test. It counts as in vivo, rat. Conditions: 3 mg/kg intravenously, N=3, one hour observation, urethane anesthesia. The procedure:
Male SD rats (250-300 g weight) were divided into some groups (N=3) and each cannula was inserted into trachea and jugular vein under anesthesia with urethane (1.5 g/kg, subcutaneously). The test compound solutions were prepared with an adequate solvent to be a dosage of 3 mg/kg, and then the solution was administered intravenously via cannula. The survival rate was determined for an hour experimental period.

For data set [4], the system named is anesthetized rats infused with hypotonic solution. Put plainly: Antidiuretic effect on diuresis induced by hypotonic solution in anesthetized rats. Conditions: 10 μg/kg intravenously. It counts as in vivo, rat. The protocol:
The Study of Antidiuretic Effect-the Confirmation Study of Antidiuretic Effect on the Diuretic Activity Induced by Loading Hypotonic Solution in the Anesthetized Rats Infused with Hypotonic Solution
It has been reported that plasma AVP level was decreased with intravenous infusion of hypotonic solution (J. Endocrinol., Vol. 141, pp. 59-67, 1994). The antidiuretic effect of the test compounds in the rats induced a diuretic condition was determined by the method as reported by Angchanpen et al (Br. J. Pharmacol., Vol. 93, pp. 151-155, 1988). The test compounds were dissolved in dimethylsulfoxide at 10 mM, and used in the study. Male SD rats (200-400 g weight) were anesthetized with 100 mg/kg of Inactin (SIGMA) intraperitonealy and each cannula was inserted into trachea, jugular vein, bladder and femoral vein, respectively. […] The urine volume obtained via cannula inserted into bladder was measured every 10 minutes. […]
The average of urine volume measured for three 10 minutes periods before the administration was defined as the pre value (0%). After the administration of the test compounds, the urine volume was measured every 10 minutes. The antidiuretic effect, namely the decrease of the urine volume, induced by administration of test compounds was calculated from the decreasing rate of urine volume (minus %) against the pre value. […]

pKi: −log10 of the molar value.

T1 sequence (P08684 whole entry): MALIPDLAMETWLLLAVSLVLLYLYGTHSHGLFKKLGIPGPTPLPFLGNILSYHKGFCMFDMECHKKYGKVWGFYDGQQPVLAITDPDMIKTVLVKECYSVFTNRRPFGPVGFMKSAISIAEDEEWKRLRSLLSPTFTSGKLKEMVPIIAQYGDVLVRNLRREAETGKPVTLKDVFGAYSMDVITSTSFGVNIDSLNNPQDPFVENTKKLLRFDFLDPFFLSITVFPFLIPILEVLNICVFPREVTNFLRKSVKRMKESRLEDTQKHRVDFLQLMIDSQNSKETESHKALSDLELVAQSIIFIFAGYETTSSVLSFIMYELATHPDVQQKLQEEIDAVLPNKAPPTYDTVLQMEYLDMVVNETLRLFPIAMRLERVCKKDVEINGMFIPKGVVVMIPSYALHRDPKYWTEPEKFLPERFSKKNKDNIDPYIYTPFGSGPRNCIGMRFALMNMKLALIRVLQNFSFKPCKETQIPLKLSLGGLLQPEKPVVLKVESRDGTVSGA
Chain of human V2 receptor (P30518 whole entry): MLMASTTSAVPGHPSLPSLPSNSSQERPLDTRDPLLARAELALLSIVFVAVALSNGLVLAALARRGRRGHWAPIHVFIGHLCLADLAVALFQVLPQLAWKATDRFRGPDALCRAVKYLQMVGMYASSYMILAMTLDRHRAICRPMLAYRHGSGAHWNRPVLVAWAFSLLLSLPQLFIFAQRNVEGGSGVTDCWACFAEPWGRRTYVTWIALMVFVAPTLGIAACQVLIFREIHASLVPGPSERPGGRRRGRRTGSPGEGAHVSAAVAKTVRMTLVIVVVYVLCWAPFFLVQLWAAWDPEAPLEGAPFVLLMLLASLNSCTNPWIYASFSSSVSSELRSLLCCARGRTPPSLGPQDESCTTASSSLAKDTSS

`CCOC(=O)CN1Cc2ccccc2N(C(=O)c2ccc(N3CCCC3)cc2Cl)CC1=O` [Example 1-7, ethyl [1-(2-chloro-4-pyrro-lidin-1-ylbenzoyl)-3-ox-o-1,2,3,5-tetra-hydrobenzo[e]-1,4-di-azepin-4-yl]acetate]: the “(A value/B value) × 100” value in data set [1] is on record as 89.9. Moreover, the pKi in data set [2] was 7.06. The Dead in data set [3] is reported as 0/3. For the same compound, in data set [4] (anesthetized male SD rats, against pre value), the “Antidiuretic effect (decreasing rate of urine volume)” value is recorded as −68.6% ^. Further, in data set [4] (period until decreasing rate of urine volume restored to −20%), the Duration time came out at 30 min.
